# Patent publication US20260209247A1, “Substituted Tricyclic Compounds” (Lupin Limited, priority 2019, published 2026)
# Key:
# [1] = tested on: pERK after EGF stimulation in DLD1 cells; assay: ERK phosphorylation assay (alphascreen pERK); type: cell-based; conditions: Homo sapiens, DLD-1, 2 h compound, 200 ng/ml hEGF for 5 minutes, read-out: ERK phosphorylation inhibition IC50
# Summary of the method: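 DLD1 cells pretreated with test compounds for 2 h, then stimulated with 200 ng/ml hEGF for 5 min. Lysates assayed by AlphaScreen SureFire for ERK1/2 p-T202/Y204, read after 2 h at 25–28 °C. % inhibition relative to the stimulated-minus-unstimulated vehicle window.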
# [2] = biological target: T1, protein-protein interaction between hSOS1 and hKRASG12C (Homo sapiens, UniProt Q07889); assay: KRAS-SOS1 interaction assay (HTRF); type: binding; conditions: GST-hSOS1 564-1049aa, HIS-hKRASG12C, read-out: KRAS-SOS1 Interaction inhibition IC50
# T1 construct: GST-hSOS1, 564-1049aa expressed and purified in-house
# T1 sequence (Q07889 564-1049): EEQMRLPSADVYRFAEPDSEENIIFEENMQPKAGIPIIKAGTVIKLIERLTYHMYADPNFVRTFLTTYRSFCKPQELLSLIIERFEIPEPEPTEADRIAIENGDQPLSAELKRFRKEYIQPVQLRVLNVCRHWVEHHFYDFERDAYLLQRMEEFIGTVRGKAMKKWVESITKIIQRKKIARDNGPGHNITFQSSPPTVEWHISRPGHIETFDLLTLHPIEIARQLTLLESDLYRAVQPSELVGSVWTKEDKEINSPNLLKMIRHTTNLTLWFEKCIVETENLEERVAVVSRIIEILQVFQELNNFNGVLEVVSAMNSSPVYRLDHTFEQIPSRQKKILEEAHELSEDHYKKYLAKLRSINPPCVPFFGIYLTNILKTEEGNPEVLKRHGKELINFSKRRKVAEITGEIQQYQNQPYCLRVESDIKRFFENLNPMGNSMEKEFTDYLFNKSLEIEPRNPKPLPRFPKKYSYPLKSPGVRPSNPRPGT
# Experimental: Interaction assay was conducted to evaluate the ability of the compounds to disrupt the protein-protein interactions between hSOS1 and hKRASG12C. Inhibitory effect of compounds on GST-hSOS1, 564-1049aa expressed and purified in-house and HIS-hKRASG12C (R06-32DH, SignalChem) interaction was assessed using HTRF detection technology in biochemical assay. Compounds were pre-incubated with 10-50 nM working solution of hSOS1 per well of a 384 well plate (Perkin Elmer, Cat #6007290) for 10 min at 20° C. in the assay buffer containing 5 mM HEPES, pH 7.4, 150 mM NaCl, 10 mM EDTA, 1 mM DTT, 0.05% BSA fraction V and 0.0025% Igepal. Reaction was initiated by adding 100-300 nM working solution of hKRASG12C in assay buffer. Total assay volume was 15 μL. Reaction was continued for 30-60 min at 20° C. Then detection solution containing MAb Anti-GST-d2 (#61GSTDLA, Cisbio BioAssays) and MAb Anti-HIS-Tb (#61HISTLA, Cisbio BioAssays), all prepared in HTRF detection buffer (#61DB10RDF, Cisbio BioAssays) was added and further incubated for 30-60 min at 20° C. HTRF signal was recorded in PHERAStar microplate reader. Ratio of signal obtained at 665 nm and 620 nm was used to compute the percent inhibition of compound utilizing the following formula: […]
# [3] = biological target: T2, nucleotide exchange on hKRASG12C mediated by hSOS1 (Homo sapiens, UniProt Q07889); assay: Guanine nucleotide exchange assay (GNEA, HTRF); type: biochemical; conditions: HIS-hSOS1 564-1049aa mediated GTP loading onto GST-hKRASG12C 1-169aa, read-out: Guanine nucleotide exchange inhibition IC50
# T2 construct: HIS-hSOS1, 564-1049aa mediated GTP loading onto GST-hKRASG12C; His (N); made in house
# T2 sequence (Q07889 564-1049): T1 sequence (Q07889 564-1049)
# Experimental: Example-154: Guanine nucleotide exchange assay (GNEA) GNEA assay was conducted to evaluate the effects of compounds on the nucleotide exchange on hKRASG12C mediated by hSOS1. Inhibitory effect of compounds on HIS-hSOS1, 564-1049aa mediated GTP loading onto GST-hKRASG12C, 1-169aa both expressed and purified in-house was assessed using HTRF detection technology in biochemical assay. Compounds were pre-incubated with hSOS1 working solution containing 10-50 nM hSOS1 and 200 nM EDA-GTP-DY-647P1 (Custom manufactured, Jena Biosciences) per well of a 384 well plate (Perkin Elmer, Cat #6007290) for 10 min at 20° C. in the assay buffer containing 10 mM HEPES, pH 7.4, 150 mM NaCl, 5 mM MgCl2, 1 mM DTT, 0.05% BSA fraction V and 0.0025% Igepal. Reaction was initiated by adding working solution of hKRASG12C containing 25-125 nM hKRASG12C and MAb Anti-GST-Tb (#61GSTTLA, Cisbio BioAssays) in assay buffer. Total assay volume was 15 μL. Reaction was continued for 30-60 min at 20° C. HTRF signal was recorded in PHERAStar microplate reader. Ratio of signal obtained at 665 nm and 620 nm was used to compute the percent inhibition of compound as follows.
smiles,measurement,setting,value
"COC[C@@]1(C)C(=O)N(C)c2cc3c(N[C@H](C)c4cccc(C(F)(F)C(C)(C)O)c4F)nc(C)nc3cc21 (racemic) [Compound 98b, (S/R)-4-(((R)-1-(3-(1,1-difluoro-2-hydroxy-2-methylpropyl)-2-fluorophenyl)ethyl)amino)-8-(methoxymethyl)-2,6,8-trimethyl-6,8-dihydro-7H-pyrrolo[2,3-g]quinazolin-7-one]",IC50,[1],1 to 200 nM
same,IC50,[2],11 to 25 nM
same,IC50,[3],31 to 130 nM
"CC[C@]1(C)C(=O)N(C)c2cc3nc(C)nc(N[C@H](C)c4cccc(C(F)(F)C(C)(C)O)c4F)c3cc21 (single isomer, unassigned) [Compound 93a]",IC50,[1],1 to 200 nM
same,IC50,[2],1 to 10 nM
same,IC50,[3],31 to 130 nM
"Cc1nc(N[C@H](C)c2cccc(C(F)(F)C(C)(C)O)c2F)c2cc3c(cc2n1)N(C)[C@@H](C)C(=O)N3C (racemic) [Compound 27a, (S/R)-4-(((R)-1-(3-(1,1-difluoro-2-hydroxy-2-methylpropyl)-2-fluorophenyl)ethyl)amino)-2,6,8,9-tetramethyl-8,9-dihydropyrazino[2,3-g]quinazolin-7(6H)-one]",IC50,[1],1 to 200 nM
same,IC50,[2],1 to 10 nM
same,IC50,[3],1 to 30 nM
"Cc1nc(N[C@H](C)c2cccc(C(F)(F)CO)c2F)c2cc3c(cc2n1)O[C@@H](C)C(=O)N3C (single isomer, unassigned) [Compound 30a]",IC50,[1],1 to 200 nM
same,IC50,[2],1 to 10 nM
same,IC50,[3],1 to 30 nM
"Cc1nc(N[C@H](C)c2cccc(C(F)(F)C(C)(C)O)c2F)c2cc3c(cc2n1)N(C)C(C)(C)C(=O)N3C [Compound 28, (R)-4-((1-(3-(1,1-difluoro-2-hydroxy-2-methylpropyl)-2-fluorophenyl)ethyl)amino)-2,6,8,8,9-pentamethyl-8,9-dihydropyrazino[2,3-g]quinazolin-7(6H)-one]",IC50,[1],1 to 200 nM
same,IC50,[2],1 to 10 nM
same,IC50,[3],1 to 30 nM
"COCC(C)(O)C(F)(F)c1cccc([C@@H](C)Nc2nc(C)nc3cc4c(cc23)N(C)C(=O)C(C)(C)O4)c1F (single isomer, unassigned) [Compound 53b]",IC50,[1],1 to 200 nM
same,IC50,[2],11 to 25 nM
same,IC50,[3],1 to 30 nM
"COC1(C)C(=O)N(C)c2cc3c(N[C@H](C)c4cccc(C(F)(F)C(C)(O)CN(C)C)c4F)nc(C)nc3cc21 (single isomer, unassigned) [Compound 135]",IC50,[1],1 to 200 nM
same,IC50,[2],1 to 10 nM
same,IC50,[3],1 to 30 nM
"Cc1nc(N[C@H](C)c2cccc(C(F)(F)C(C)(C)O)c2F)c2cc3c(cc2n1)n(C)c(=O)n3C(C)C [Compound 105, (R)-8-((1-(3-(1,1-difluoro-2-hydroxy-2-methylpropyl)-2-fluorophenyl)ethyl)amino)-1-isopropyl-3,6-dimethyl-1H-imidazo[4,5-g]quinazolin-2(3H)-one]",IC50,[1],1 to 200 nM
same,IC50,[2],1 to 10 nM
same,IC50,[3],1 to 30 nM
"Cc1nc(N[C@H](C)c2cccc(C(F)(F)CO)c2F)c2cc3c(cc2n1)OC(C)(C)CN3C [Compound 35, (R)-2,2-Difluoro-2-(2-fluoro-3-(1-((2,6,8,8-tetramethyl-7,8-dihydro-6H-[1,4]oxazino[3,2-g]quinazolin-4-yl)amino)ethyl)phenyl)ethan-1-ol]",IC50,[1],1 to 200 nM
same,IC50,[2],1 to 10 nM
same,IC50,[3],1 to 30 nM
"CNCC(C)(O)C(F)(F)c1cccc([C@@H](C)Nc2nc(C)nc3cc4c(cc23)N(C)C(=O)C4(C)C)c1F (single isomer, unassigned) [Compound 130a]",IC50,[1],1 to 200 nM
same,IC50,[2],1 to 10 nM
same,IC50,[3],1 to 30 nM
"CCC1(OC)C(=O)N(C)c2cc3c(N[C@H](C)c4cc(N)cc(C(F)(F)F)c4)nc(C)nc3cc21 (stereo partly drawn) [Compound 139, (R & S)-4-(((R)-1-(3-amino-5-(trifluoromethyl)phenyl)ethyl)amino)-8-ethyl-8-methoxy-2,6-dimethyl-6,8-dihydro-7H-pyrrolo[2,3-g]quinazolin-7-one]",IC50,[1],201 to 500 nM
same,IC50,[2],11 to 25 nM
same,IC50,[3],31 to 130 nM
"Cc1nc(N[C@H](C)c2cccc(C(F)(F)C(C)(C)O)c2F)c2cc3c(cc2n1)OCCN3C [Compound 45, (R)-1-(3-(1-((2,6-dimethyl-7,8-dihydro-6H-[1,4]oxazino[3,2-g]quinazolin-4-yl)amino)ethyl)-2-fluorophenyl)-1,1-difluoro-2-methylpropan-2-ol]",IC50,[1],1 to 200 nM
same,IC50,[2],1 to 10 nM
same,IC50,[3],31 to 130 nM
"CCN1C(=O)COc2cc3nc(C)nc(N[C@H](C)c4cccc(C(F)(F)CO)c4F)c3cc21 [Compound 13, (R)-4-((1-(3-(1,1-difluoro-2-hydroxyethyl)-2-fluorophenyl)ethyl)amino)-6-ethyl-2-methyl-6H-[1,4]oxazino[3,2-g]quinazolin-7(8H)-one]",IC50,[1],1 to 200 nM
same,IC50,[2],1 to 10 nM
same,IC50,[3],1 to 30 nM
"Cc1nc(N[C@H](C)c2cccc(C(F)(F)C(C)(C)O)c2F)c2cc3c(cc2n1)C1(CCOCC1)C(=O)N3C [Compound 122, (R)-4′-((1-(3-(1,1-difluoro-2-hydroxy-2-methylpropyl)-2-fluorophenyl)ethyl)amino)-2′,6′-dimethyl-2,3,5,6-tetrahydrospiro[pyran-4,8′-pyrrolo[2,3-g]quinazolin]-7′(6′H)-one]",IC50,[1],1 to 200 nM
same,IC50,[2],1 to 10 nM
same,IC50,[3],1 to 30 nM
"Cc1nc(N[C@H](C)c2cccc(C(F)(F)C(C)(O)CN(C)C)c2F)c2cc3c(cc2n1)C(C)(C)C(=O)N3C (single isomer, unassigned) [Compound 129a]",IC50,[1],1 to 200 nM
same,IC50,[2],1 to 10 nM
same,IC50,[3],1 to 30 nM
"COCCN1C(=O)C(C)(C)c2cc3nc(C)nc(N[C@H](C)c4cccc(C(F)(F)C(C)(C)O)c4F)c3cc21 [Compound 63, (R)-4-((1-(3-(1,1-difluoro-2-hydroxy-2-methylpropyl)-2-fluorophenyl)ethyl)amino)-6-(2-methoxyethyl)-2,8,8-trimethyl-6,8-dihydro-7H-pyrrolo[2,3-g]quinazolin-7-one]",IC50,[1],1 to 200 nM
same,IC50,[2],1 to 10 nM
same,IC50,[3],1 to 30 nM
"CO[C@]1(C)C(=O)N(C)c2cc3c(N[C@H](C)c4cccc(C(F)(F)C(C)(C)O)c4F)nc(C)nc3cc21 (single isomer, unassigned) [Compound 101a]",IC50,[1],1 to 200 nM
same,IC50,[2],1 to 10 nM
same,IC50,[3],31 to 130 nM
"Cc1nc(N[C@H](C)c2cccc(C(F)(F)CO)c2F)c2cc3c(cc2n1)OCC(=O)N3C [Compound 2, (R)-4-((1-(3-(1,1-difluoro-2-hydroxyethyl)-2-fluorophenyl)ethyl)amino)-2,6-dimethyl-6H-[1,4]oxazino[3,2-g]quinazolin-7(8H)-one]",IC50,[1],1 to 200 nM
same,IC50,[2],1 to 10 nM
same,IC50,[3],1 to 30 nM
